Patent publication US8802597B2, “Herbicidal pyrimidines” (E I du Pont de Nemours and Company, priority 2003, dated 2014)

Tests used:
Test in all cases: Test B flooded paddy test
Assay type in all cases: in vivo
Conditions in all cases: Flood, scale 0 to 100
[1] = system: barnyardgrass (Echinochloa crus-galli)
Method in brief: (§1)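 Visual injury scoring (0 = no effect, 100 = complete control) versus controls made 13 to 15 days after treatment in the greenhouse. Test species were grown in flooded paddy to the 2-leaf stage: rice, barnyardgrass, umbrella sedge, duck salad.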

rice (Oryza sativa) = system: rice (Oryza sativa)
Method in brief: as §1

[2] = system: umbrella sedge (Cyperus difformis)
Method in brief: as §1

[3] = system: duck salad (Heteranthera limosa)
Method in brief: as §1

[4] = Echinochloa crus-galli, 125 g ai/ha, read-out: Plant response rating, Barnyardgrass
[5] = Echinochloa crus-galli, 500 g ai/ha, read-out: Plant response rating, Barnyardgrass
[6] = Oryza sativa, 125 g ai/ha, read-out: Plant response rating, Rice
[7] = Oryza sativa, 500 g ai/ha, read-out: Plant response rating, Rice
[8] = Cyperus difformis, 125 g ai/ha, read-out: Plant response rating, Sedge, Umbrella
[9] = Cyperus difformis, 500 g ai/ha, read-out: Plant response rating, Sedge, Umbrella
[10] = Heteranthera limosa, 125 g ai/ha, read-out: Plant response rating, Ducksalad
[11] = Heteranthera limosa, 500 g ai/ha, read-out: Plant response rating, Ducksalad

With `CCOC(=O)c1nc(-c2ccc(Cl)cc2)nc(N)c1Cl` [Compound 64, ethyl 6-amino-5-chloro-2-(4-chlorophenyl)-4-pyrimidinecarboxylate] the pest or weed control at 62 g/ha ([1]; Echinochloa crus-galli, 62 g ai/ha, read-out: Plant response rating, Barnyardgrass) was 0%, the pest or weed control at 125 g/ha [1, 4] was 0% and the pest or weed control at 250 g/ha ([1]; Echinochloa crus-galli, 250 g ai/ha, read-out: Plant response rating, Barnyardgrass) was 0%. It also gave a pest or weed control at 500 g/ha [1, 5] of 0%, a plant injury at 62 g/ha (rice (Oryza sativa); Oryza sativa, 62 g ai/ha, read-out: Plant response rating, Rice) of 0% and a plant injury at 125 g/ha (rice (Oryza sativa); [6]) of 0%. It also gave a plant injury at 250 g/ha (rice (Oryza sativa); Oryza sativa, 250 g ai/ha, read-out: Plant response rating, Rice) of 0%, a plant injury at 500 g/ha (rice (Oryza sativa); [7]) of 0% and a pest or weed control at 62 g/ha ([2]; Cyperus difformis, 62 g ai/ha, read-out: Plant response rating, Sedge, Umbrella) of 0%. For the same compound, the pest or weed control at 125 g/ha [2, 8] was 0%, the pest or weed control at 250 g/ha ([2]; Cyperus difformis, 250 g ai/ha, read-out: Plant response rating, Sedge, Umbrella) was 70% and the pest or weed control at 500 g/ha [2, 9] was 90%. For the same compound, the pest or weed control at 62 g/ha ([3]; Heteranthera limosa, 62 g ai/ha, read-out: Plant response rating, Ducksalad) was 80%, the pest or weed control at 125 g/ha [3, 10] was 90% and the pest or weed control at 250 g/ha ([3]; Heteranthera limosa, 250 g ai/ha, read-out: Plant response rating, Ducksalad) was 100%. It also gave a pest or weed control at 500 g/ha [3, 11] of 100%.

For `Cc1ccc(-c2nc(N)c(Cl)c(C(=O)O)n2)cc1` [Compound 91], the “Plant response rating, Barnyardgrass” value ([1]; 125 g ai/ha) was 0, the “Plant response rating, Barnyardgrass” value ([1]; 500 g ai/ha) was 20 and the “Plant response rating, Rice” value (rice (Oryza sativa); 125 g ai/ha) was 0. The “Plant response rating, Rice” value (rice (Oryza sativa); 500 g ai/ha) was 0, the “Plant response rating, Sedge, Umbrella” value ([2]; 125 g ai/ha) was 80 and the “Plant response rating, Sedge, Umbrella” value ([2]; 500 g ai/ha) was 90. The “Plant response rating, Ducksalad” value ([3]; 125 g ai/ha) was 100 and the “Plant response rating, Ducksalad” value ([3]; 500 g ai/ha) was 100.

`COC(=O)c1nc(-c2ccc(Br)cc2)nc(N)c1Cl` [Compound 96, methyl 6-amino-2-(4-bromophenyl)-5-chloro-4-pyrimidinecarboxylate] was tested, and the pest or weed control at 125 g/ha [1, 4] was 0%, the pest or weed control at 500 g/ha [1, 5] was 10% and the plant injury at 125 g/ha (rice (Oryza sativa); [6]) was 0%. It also gave a plant injury at 500 g/ha (rice (Oryza sativa); [7]) of 0%, a pest or weed control at 125 g/ha [2, 8] of 90% and a pest or weed control at 500 g/ha [2, 9] of 90%. It also gave a pest or weed control at 125 g/ha [3, 10] of 100% and a pest or weed control at 500 g/ha [3, 11] of 100%.
